According to ChEMBL document CHEMBL1201862, “PubChem BioAssay data set” (2004):
Calls of active or inactive are those of the source.

Experiments:
[1] = Luminescence Cell-Based Dose Confirmation HTS to Identify Inhibitors of Platelet Dense Granule Release. [Related pubchem assays: 1663 (Primary HTS), 1678 (Summary of Project)]; assay type: functional
[2] = target: Luciferin 4-monooxygenase (Photinus pyralis, UniProt P08659); assay: firefly luciferase enzyme inhibitors, dose response, biochemical, luminescence (AID 1891)
[3] = target: FAD-linked sulfhydryl oxidase ALR (Homo sapiens, UniProt P55789); assay: inhibitors of human ALR sulfhydryl oxidase, dose response, biochemical, H2O2 detection, luminescence, cherry-pick (AID 493248)
[4] = target: Nonstructural protein 1 (Influenza A virus, UniProt Q194T2); assay type: functional, Influenza A virus (A/California/07/2009(H1N1))
[5] = growth suppression of PTEN-null colon cells, dose response, cell-based, HCT116 PTEN knockout (AID 1047); assay type: functional;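 also: HCT116 colon tumor cells with PTEN knocked out; cells exposed to compound for 60 hours before readout; potency for loss of cell viability measured by luminescence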
[6] = microbe, parasite or virus in culture; assay type: functional; settings: Mycobacterium tuberculosis
[7] = growth suppression of beta-catenin-knockout colon cells, dose response, cell-based, HCT116, human colon tumor (AID 1045); assay type: functional;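 also: HCT116 colon tumor cells with beta catenin knocked out; cells exposed to compound for 60 hours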
[8] = cytotoxicity toward NIH3T3 fibroblasts, dose response, counter-screen, cell-based, ATP luminescence, mouse fibroblasts (AID 2010); assay type: functional;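 also: cells exposed to compound for about 90 hours before reading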
[9] = inhibitors of intracellular T. cruzi replication, confirmation, NIH3T3 host cells, beta-gal luminescence (AID 2044); assay type: functional, cell-based;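 also: intracellular parasites grown in NIH/3T3 mouse fibroblasts as host cells; luminescent beta-galactosidase reporter signal from transgenic T. cruzi replicating inside host cells; inhibitors lower the luminescence signal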
[10] = cells
[11] = target: Heat shock protein HSP 90-alpha (Homo sapiens, UniProt P07900); assay type: functional, organism-based
[12] = target: T1, Heat shock factor protein 1 (Mus musculus, UniProt P38532); assay: HSF1 potentiators in luciferase reporter cells, confirmation, cell-based, NIH3T3, luminescence, dose retest (AID 435004); assay type: functional;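 also: stress induced by proteasome inhibitor MG132 added 30 min after compound; luciferase reporter driven by HSF1 response element in NIH3T3 cells; actives raise luminescence as potentiators of the MG132 stress response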
T1 sequence (P38532 whole entry): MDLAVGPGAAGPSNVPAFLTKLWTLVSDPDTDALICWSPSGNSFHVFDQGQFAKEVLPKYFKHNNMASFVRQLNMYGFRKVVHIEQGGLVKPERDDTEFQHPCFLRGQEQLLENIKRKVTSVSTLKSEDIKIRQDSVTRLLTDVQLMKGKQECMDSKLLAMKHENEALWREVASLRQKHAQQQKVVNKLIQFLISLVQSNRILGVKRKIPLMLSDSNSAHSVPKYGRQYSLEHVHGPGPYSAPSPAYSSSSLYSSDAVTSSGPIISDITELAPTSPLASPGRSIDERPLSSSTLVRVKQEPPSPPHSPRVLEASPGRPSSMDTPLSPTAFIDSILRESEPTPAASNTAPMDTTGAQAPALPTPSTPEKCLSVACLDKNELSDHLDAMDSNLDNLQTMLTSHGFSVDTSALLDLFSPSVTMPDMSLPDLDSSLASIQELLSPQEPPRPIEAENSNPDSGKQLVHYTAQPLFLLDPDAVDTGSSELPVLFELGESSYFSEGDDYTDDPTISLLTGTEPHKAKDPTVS

[13] = target: T2, Leucine aminopeptidase (Plasmodium falciparum 3D7, UniProt Q8IL11); assay: P. falciparum M17LAP inhibitors, primary screen, biochemical, fluorogenic H-Leu-NHMec substrate, 1536-well (AID 1619); assay type: functional
T2 sequence (Q8IL11 whole entry): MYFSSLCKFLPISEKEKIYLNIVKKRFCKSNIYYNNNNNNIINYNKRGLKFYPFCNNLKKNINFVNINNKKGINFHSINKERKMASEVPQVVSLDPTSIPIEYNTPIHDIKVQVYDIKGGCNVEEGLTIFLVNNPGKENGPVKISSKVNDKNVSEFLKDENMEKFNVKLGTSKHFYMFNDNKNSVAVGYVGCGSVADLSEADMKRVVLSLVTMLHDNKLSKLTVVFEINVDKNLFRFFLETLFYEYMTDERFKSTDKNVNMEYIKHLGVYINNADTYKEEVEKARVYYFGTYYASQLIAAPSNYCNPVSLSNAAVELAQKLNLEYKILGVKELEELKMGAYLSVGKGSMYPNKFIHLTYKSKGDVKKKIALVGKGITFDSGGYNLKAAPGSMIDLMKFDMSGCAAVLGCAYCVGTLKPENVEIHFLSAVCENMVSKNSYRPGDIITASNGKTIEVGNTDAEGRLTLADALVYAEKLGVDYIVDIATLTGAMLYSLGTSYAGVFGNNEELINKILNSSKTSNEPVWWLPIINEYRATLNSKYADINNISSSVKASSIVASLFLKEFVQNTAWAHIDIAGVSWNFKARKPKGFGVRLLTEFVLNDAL

[14] = target: Large T antigen (Simian virus 40, UniProt P03070); assay type: functional, Betapolyomavirus macacae;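 also: Confirmatory-stage PubChem screen for compounds that inhibit SV40 T antigen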
[15] = target: Eukaryotic translation initiation factor 4E (Mus musculus, UniProt P63073); assay: eIF4E–eIF4G protein interaction inhibitors, dose response, biochemical, TR-FRET (AID 855); assay type: functional;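 also: potency for disrupting eIF4E binding to eIF4GI seen as loss of FRET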
[16] = target: T3, Protein RecA (Mycobacterium tuberculosis, UniProt P9WHJ3); assay: Fluorescence Cell-Free Homogeneous Dose Retest to Identify Inhibitors of RecA-Intein Splicing Activity. [Related pubchem assays (depositor defined):AID2097, AID2223, AID489010, AID492950]; assay type: functional
T3 sequence (P9WHJ3 whole entry): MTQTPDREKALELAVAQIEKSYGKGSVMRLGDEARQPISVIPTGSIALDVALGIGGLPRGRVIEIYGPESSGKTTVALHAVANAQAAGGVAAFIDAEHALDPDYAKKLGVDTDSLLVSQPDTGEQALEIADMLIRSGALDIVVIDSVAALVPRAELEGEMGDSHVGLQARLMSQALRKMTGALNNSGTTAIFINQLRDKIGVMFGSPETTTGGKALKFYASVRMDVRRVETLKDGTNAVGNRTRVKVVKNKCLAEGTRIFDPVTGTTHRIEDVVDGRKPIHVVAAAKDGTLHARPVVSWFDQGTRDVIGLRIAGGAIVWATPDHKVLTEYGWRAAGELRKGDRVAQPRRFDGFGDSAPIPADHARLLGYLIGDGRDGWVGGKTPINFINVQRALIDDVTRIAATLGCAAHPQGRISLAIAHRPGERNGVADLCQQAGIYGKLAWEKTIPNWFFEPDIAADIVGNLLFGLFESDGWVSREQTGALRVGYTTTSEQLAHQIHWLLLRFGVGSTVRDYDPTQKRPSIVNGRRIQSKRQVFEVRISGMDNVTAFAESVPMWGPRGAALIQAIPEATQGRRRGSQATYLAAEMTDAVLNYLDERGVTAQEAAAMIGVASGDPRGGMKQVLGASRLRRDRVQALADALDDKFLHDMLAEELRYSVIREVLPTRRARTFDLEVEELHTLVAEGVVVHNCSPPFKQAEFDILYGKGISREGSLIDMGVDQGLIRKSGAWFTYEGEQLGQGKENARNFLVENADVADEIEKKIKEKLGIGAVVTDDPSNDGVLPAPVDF

[17] = target: T4, Replicative DNA helicase DnaB (Mycobacterium tuberculosis, UniProt P9WMR3); assay: DnaB intein splicing inhibitors, dose response, biochemical, cell-free fluorescence (AID 449749); assay type: functional
T4 sequence (P9WMR3 whole entry): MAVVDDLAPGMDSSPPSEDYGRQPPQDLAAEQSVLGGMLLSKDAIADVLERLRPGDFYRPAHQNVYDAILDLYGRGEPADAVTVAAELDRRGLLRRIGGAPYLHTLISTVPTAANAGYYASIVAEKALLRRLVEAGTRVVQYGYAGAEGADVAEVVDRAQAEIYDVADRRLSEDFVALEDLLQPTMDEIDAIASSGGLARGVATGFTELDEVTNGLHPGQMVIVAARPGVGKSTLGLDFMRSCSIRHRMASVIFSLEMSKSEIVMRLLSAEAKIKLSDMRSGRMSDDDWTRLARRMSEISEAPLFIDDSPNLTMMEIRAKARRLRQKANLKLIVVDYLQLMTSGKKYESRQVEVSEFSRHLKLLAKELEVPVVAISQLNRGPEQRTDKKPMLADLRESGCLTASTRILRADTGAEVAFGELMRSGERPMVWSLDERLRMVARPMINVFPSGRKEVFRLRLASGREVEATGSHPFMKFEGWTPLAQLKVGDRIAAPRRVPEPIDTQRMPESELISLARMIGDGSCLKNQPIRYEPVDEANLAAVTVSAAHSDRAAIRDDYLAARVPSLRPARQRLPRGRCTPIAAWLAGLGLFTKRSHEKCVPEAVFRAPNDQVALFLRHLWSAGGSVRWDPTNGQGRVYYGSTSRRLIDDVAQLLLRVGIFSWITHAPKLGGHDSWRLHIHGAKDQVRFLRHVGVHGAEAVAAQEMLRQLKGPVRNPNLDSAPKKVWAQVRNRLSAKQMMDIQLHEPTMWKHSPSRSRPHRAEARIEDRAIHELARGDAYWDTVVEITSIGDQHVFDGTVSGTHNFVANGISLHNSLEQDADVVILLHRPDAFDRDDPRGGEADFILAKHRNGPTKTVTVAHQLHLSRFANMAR

[18] = tested on: Streptococcus sp. 'group A'; assay: growth inhibition of control SK(-) GAS strain, dose response, counter-screen for streptokinase expression inhibitor project, luminescence, kanamycin, BacTiterGlo, confirmation (AID 1900); assay type: functional, organism-based
[19] = cells; assay type: functional
[20] = tested on: Streptococcus; assay: Group A Streptococcus viability loss, dose response, counter-screen for streptokinase expression inhibitor project, luminescence, BacTiterGlo (AID 1915); assay type: functional, organism-based;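 also: potency for reduction of bacterial viability or growth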
[21] = THP-1 cell cytotoxicity, dose response, cytotoxicity control for non-replicating M. tuberculosis project (AID 489025); assay type: functional

Chain of FAD-linked sulfhydryl oxidase ALR (P55789 whole entry): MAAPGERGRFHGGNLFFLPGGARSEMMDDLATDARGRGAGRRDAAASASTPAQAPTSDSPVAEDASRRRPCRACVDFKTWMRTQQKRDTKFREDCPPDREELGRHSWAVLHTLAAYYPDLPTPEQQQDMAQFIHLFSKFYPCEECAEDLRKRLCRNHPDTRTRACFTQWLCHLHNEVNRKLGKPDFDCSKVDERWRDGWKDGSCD
Chain of Luciferin 4-monooxygenase (P08659 whole entry): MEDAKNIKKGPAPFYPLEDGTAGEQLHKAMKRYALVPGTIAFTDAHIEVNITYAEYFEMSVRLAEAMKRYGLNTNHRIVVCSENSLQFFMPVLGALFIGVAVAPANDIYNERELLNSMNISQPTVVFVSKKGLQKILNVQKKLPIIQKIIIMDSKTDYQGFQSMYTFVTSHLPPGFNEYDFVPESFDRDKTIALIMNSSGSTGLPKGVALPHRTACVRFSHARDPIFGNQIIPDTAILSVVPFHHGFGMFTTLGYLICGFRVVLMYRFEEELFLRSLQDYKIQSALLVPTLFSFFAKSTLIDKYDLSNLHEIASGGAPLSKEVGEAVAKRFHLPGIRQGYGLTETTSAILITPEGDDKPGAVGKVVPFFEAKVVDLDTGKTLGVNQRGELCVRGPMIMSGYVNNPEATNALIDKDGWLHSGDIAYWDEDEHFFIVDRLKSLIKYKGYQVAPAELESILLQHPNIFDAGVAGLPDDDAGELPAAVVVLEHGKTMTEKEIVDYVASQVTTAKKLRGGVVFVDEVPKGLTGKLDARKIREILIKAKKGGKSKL
Chain of Eukaryotic translation initiation factor 4E (P63073 whole entry): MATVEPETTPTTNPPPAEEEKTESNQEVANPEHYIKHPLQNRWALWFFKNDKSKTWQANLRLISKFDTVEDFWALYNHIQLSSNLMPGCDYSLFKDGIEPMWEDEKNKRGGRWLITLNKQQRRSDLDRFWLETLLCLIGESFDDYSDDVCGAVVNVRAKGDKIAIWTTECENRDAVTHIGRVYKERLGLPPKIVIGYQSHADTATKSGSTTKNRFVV
Chain of Nonstructural protein 1 (Q194T2 whole entry): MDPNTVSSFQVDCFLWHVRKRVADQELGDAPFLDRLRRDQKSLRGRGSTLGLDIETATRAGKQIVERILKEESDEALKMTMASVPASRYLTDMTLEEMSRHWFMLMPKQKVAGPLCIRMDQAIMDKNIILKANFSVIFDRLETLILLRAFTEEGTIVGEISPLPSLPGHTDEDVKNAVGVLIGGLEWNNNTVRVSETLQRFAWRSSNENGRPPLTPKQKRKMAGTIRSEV
Chain of Large T antigen (P03070 whole entry): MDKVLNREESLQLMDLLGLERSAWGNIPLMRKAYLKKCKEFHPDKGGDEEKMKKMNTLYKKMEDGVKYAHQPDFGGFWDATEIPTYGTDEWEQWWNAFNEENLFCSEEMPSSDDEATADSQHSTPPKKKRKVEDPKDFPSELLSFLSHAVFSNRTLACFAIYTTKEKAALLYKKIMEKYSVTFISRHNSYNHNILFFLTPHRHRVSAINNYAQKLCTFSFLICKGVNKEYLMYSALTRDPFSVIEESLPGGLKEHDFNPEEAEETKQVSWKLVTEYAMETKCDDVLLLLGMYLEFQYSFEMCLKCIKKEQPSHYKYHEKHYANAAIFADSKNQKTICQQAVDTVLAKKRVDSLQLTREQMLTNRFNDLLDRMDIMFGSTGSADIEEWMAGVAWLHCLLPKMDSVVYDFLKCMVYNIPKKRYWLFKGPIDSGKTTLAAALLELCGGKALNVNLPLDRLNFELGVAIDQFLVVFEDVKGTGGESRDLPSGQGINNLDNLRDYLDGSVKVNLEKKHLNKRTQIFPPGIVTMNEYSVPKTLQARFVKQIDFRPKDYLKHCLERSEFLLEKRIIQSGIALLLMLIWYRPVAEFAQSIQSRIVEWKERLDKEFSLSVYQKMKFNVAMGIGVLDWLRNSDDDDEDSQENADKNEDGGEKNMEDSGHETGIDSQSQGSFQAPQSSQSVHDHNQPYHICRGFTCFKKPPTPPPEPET

Structure (SMILES): CC(C)COc1ccc(C(=O)Nc2ccc(NC(=O)c3ccco3)c(Cl)c2)cc1
- EC50 [1]: > 112 µM (not active)
- EC50 [2]: > 112 µM (not active)

Structure (SMILES): CCOC(=O)c1nc(O)c2c3c(sc2n1)CCCC3
- EC50 [1]: > 112 µM (not active)

Structure (SMILES): CCN(CC)CCNS(=O)(=O)c1ccc(C(=O)NN)cc1
- AC50 [3]: 3.39 µM (active)

Structure (SMILES): COc1ccc(Nc2ccc(S(=O)(=O)N3CCCCCC3)cc2[N+](=O)[O-])cc1
- IC50 [4]: 45.6 µM (active)

Structure (SMILES): CCc1ccc(C2=NN(c3ccc(S(N)(=O)=O)cc3)C(c3ccc(F)cc3)C2)cc1 (stereo not given)
- EC50 [5]: 16.6 µM (active)
- CC50 [6]: 27.6 µM (active)
- EC50 [7]: 17.9 µM (active)

Structure (SMILES): Fc1ccc(C2CC(c3ccccc3)n3ncnc3N2)cc1 (stereo not given)
- EC50 [1]: > 112 µM (not active)
- EC50 [2]: > 112 µM (not active)

Structure (SMILES): Cc1[nH]c(=O)c(C#N)cc1-c1ccncc1 [MILRINONE]
- EC50 [1]: 0.634 µM (active)
- EC50 [2]: > 112 µM (not active)

Structure (SMILES): CCc1ccc2oc(=O)cc(CN3CCN(Cc4ccccc4)CC3)c2c1
- EC50 [8]: > 60 µM (not active)
- EC50 [9]: < 0.1 µM (active)
- EC50 [10]: 0.127 µM (active)

Structure (SMILES): COc1ccc(N2CC(C(=O)NCc3ccccc3)CC2=O)cc1 (stereo not given)
- EC50 [1]: > 112 µM (not active)
- EC50 [2]: > 112 µM (not active)

Structure (SMILES): O=C1CC(N2CCc3ccccc32)C(=O)N1c1ccccc1 (stereo not given)
- AC50 [3]: 0.677 µM (active)

Structure (SMILES): Cn1nc(C(=O)OCC(=O)Nc2sccc2C(N)=O)c2ccccc2c1=O
- EC50 [1]: > 112 µM (not active)
- EC50 [2]: > 112 µM (not active)

Structure (SMILES): COc1cc(C=NO)nc(-c2ccccn2)c1
- AC50 [11]: 3.2 µM (active)
- IC50 [4]: 2.51 µM (active)

Structure (SMILES): COc1cc2cc(C(N)=O)c(N)nc2cc1OC
- EC50 [1]: 40 µM (active)
- EC50 [2]: > 112 µM (not active)

Structure (SMILES): CCCCN(CCCNC(=O)C1CCN(S(=O)(=O)CC)CC1)c1ccccc1
- EC50 [12]: > 260 µM (inactive)
- AC50 [3]: 0.131 µM (active)

Structure (SMILES): CC(C)CC(=O)n1sc(NC(=O)c2ccccc2)nc1=O
- IC50 [13]: 43.9 µM (active)

Structure (SMILES): CCOC(=O)c1nc2sc3c(c2c(=O)[nH]1)CCCC3
- EC50 [2]: > 112 µM (not active)

Structure (SMILES): Cc1ccc(C(=O)c2c(NC(=O)c3ccncc3)sc3c2CCCC3)cc1
- EC50 [8]: > 60 µM (not active)
- EC50 [9]: < 0.1 µM (active)
- EC50 [10]: 0.266 µM (active)

Structure (SMILES): Cc1ccsc1/C=N/n1c(S)nnc1-c1cccnc1
- IC50 [14]: 30.3 µM (active)
- IC50 [15]: > 64 µM (inactive)

Structure (SMILES): O=C(CCl)Nc1sccc1C(=O)c1ccccc1
- EC50 [16]: 4.78 µM (active)
- AC50 [17]: 4.8 µM (active)
- CC50 [6]: 18.1 µM (active)

Structure (SMILES): CCCN1CCC(=NNC(=O)c2ccc(Br)o2)CC1
- IC50 [15]: > 64 µM (inactive)

Structure (SMILES): Cc1cc2nc(N/C(N)=N/C(=O)C(C)C)nc(C)c2cc1C
- EC50 [18]: > 150 µM (not active)
- IC50 [19]: 20.3 µM (active)
- EC50 [20]: > 150 µM (not active)
- CC50 [21]: 17 µM (active)
- CC50 [6]: > 40 µM (active)

Structure (SMILES): O=C(CSc1nc[nH]n1)Nc1ccc(S(=O)(=O)N2CCCC2)cc1
- IC50 [13]: 82.5 µM (active)

Structure (SMILES): CCN(CC)CCN(C(=O)C1CCCCC1)c1nc2cc3c(cc2s1)OCO3
- EC50 [8]: > 60 µM (not active)
- EC50 [9]: < 0.1 µM (active)
- EC50 [10]: 0.514 µM (active)

Structure (SMILES): CC1=C(C(=O)OCc2ccccc2)C(c2ccc(Cl)cc2Cl)NC(=O)N1CCCCCC(=O)O (stereo not given)
- IC50 [13]: 20.4 µM (active)

Structure (SMILES): Cc1ccc2c(CN3CCN(Cc4ccccc4)CC3)cc(=O)oc2c1C
- EC50 [8]: > 60 µM (not active)
- EC50 [9]: < 0.1 µM (active)
- EC50 [10]: 0.065 µM (active)
